Results as given in patent US12570671B2 (BRISTOL-MYERS SQUIBB COMPANY, priority 2020, dated 2026).

Key:
Ikaros = Ikaros (Homo sapiens, UniProt Q13422+Q96SW2); assay: Helios Cellular Degradation Assay (Ikaros readout); type: cell-based; design: endogenous in cells; host or cells: Jurkat; conditions: Jurkat cells, 72 h incubation, Ikaros-Alexa488 antibody staining, flow cytometry; read-out: Ikaros Jurkat IC50
Summary of the method: (§1)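 Jurkat cells (80,000/well, RPMI+10% FBS) were treated with compound for 72 h at 37° C. After fixation and permeabilization they were stained with fluorescent antibodies to Helios, Ikaros and Aiolos. Intracellular protein levels were quantified by flow cytometry.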

Helios = Helios (Homo sapiens, UniProt Q96SW2+Q9UKS7); assay: Helios Cellular Degradation Assay (Helios readout); type: cell-based; design: endogenous in cells; host or cells: Jurkat; conditions: Jurkat cells, 72 h incubation, Helios-PE antibody staining, flow cytometry; read-out: Helios Jurkat IC50
Summary of the method: as §1

Ikaros, sequence (Q13422 whole entry): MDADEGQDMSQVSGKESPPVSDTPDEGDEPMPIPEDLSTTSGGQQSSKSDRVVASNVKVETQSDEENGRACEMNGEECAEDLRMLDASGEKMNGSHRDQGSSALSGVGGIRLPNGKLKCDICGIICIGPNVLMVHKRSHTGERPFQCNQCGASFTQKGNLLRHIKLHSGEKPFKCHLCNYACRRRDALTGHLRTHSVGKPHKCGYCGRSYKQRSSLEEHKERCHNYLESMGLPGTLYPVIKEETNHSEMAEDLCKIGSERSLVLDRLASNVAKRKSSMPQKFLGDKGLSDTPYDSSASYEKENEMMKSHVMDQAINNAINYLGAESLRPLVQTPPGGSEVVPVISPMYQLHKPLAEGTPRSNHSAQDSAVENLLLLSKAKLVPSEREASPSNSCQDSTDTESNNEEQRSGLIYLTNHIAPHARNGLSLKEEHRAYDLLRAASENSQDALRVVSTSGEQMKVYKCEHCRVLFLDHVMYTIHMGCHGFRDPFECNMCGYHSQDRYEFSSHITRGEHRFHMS
Ikaros, sequence (Q96SW2 whole entry): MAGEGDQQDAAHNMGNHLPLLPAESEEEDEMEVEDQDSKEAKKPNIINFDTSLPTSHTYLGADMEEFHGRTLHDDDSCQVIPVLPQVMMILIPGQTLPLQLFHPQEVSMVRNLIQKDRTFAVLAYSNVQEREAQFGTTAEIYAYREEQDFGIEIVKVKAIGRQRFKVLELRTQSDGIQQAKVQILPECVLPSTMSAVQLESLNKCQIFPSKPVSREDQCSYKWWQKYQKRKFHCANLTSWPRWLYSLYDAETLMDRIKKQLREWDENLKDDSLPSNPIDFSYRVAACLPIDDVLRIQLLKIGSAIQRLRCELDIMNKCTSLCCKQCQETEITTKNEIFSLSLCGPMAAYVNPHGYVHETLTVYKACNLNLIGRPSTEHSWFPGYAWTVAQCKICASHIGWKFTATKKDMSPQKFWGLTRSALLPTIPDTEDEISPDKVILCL
Ikaros, sequence (Q16531 whole entry partner): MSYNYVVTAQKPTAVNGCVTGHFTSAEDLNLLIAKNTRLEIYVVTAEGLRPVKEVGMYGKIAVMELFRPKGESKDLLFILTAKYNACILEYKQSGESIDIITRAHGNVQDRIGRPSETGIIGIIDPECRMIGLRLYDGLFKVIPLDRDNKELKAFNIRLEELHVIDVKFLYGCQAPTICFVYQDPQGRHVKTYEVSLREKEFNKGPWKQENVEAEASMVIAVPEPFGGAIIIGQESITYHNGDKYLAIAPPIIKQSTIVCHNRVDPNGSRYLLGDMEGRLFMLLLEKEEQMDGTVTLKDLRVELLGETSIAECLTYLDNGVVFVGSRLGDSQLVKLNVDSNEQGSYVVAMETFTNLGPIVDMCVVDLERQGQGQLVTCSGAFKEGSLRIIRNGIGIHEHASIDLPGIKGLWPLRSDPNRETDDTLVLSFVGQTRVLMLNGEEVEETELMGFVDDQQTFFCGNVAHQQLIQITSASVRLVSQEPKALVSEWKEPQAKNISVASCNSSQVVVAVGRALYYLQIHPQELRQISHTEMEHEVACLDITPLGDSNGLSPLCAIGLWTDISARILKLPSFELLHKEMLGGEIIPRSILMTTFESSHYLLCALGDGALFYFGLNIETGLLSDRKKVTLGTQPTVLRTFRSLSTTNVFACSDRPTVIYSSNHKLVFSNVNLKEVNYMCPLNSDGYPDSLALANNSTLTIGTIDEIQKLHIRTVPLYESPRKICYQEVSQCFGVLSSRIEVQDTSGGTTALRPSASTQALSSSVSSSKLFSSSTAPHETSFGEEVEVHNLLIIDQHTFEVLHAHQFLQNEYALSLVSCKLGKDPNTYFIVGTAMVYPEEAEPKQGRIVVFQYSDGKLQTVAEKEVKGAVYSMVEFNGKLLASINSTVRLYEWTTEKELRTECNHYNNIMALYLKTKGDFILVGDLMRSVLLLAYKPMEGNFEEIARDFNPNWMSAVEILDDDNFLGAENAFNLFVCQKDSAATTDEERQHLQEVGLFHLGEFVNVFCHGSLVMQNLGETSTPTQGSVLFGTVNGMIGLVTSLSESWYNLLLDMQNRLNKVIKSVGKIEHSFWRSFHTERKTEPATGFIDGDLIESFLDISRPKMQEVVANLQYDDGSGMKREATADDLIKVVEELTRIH
Helios, sequence (Q9UKS7 whole entry): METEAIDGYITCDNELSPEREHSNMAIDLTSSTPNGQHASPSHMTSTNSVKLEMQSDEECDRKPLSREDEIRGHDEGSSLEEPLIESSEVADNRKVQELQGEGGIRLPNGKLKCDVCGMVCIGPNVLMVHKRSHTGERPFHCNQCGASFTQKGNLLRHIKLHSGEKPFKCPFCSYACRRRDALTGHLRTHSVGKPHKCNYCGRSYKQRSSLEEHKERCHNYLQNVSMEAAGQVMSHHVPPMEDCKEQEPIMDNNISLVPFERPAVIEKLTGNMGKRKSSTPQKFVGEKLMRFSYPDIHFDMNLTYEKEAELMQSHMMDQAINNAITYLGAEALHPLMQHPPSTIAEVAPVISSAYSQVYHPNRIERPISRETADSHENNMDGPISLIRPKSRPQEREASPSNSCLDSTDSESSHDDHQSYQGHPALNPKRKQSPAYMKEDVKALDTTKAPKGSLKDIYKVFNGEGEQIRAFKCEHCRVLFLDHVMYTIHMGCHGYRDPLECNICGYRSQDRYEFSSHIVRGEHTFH
Helios, sequence (Q96SW2 whole entry): as the sequence (Q96SW2 whole entry) above
Helios, sequence (Q16531 whole entry partner): as the sequence (Q16531 whole entry partner) above

Row | Compound | DC50 (Ikaros) [nM] | DC50 (Helios) [nM]
1 | O=C1CCC(N2Cc3cc(-c4ccc5[nH]cnc5n4)ccc3C2=O)C(=O)N1 (centres unmarked) [Example 139, 3-(5-(1H-imidazo[4,5-b]pyridin-5-yl)-1-oxoisoindolin-2-yl)piperidine-2,6-dione] | ≥ 20000 | 4160
2 | O=C1CCC(N2Cc3cc(-c4ccc5cc(O)ccc5n4)ccc3C2=O)C(=O)N1 (centres unmarked) [Example 40, 3-[5-(6-hydroxyquinolin-2-yl)-1-oxo-2,3-dihydro-1H-isoindol-2-yl]piperidine-2,6-dione] | > 20000 | 19
3 | Nc1nc(-c2ccc3c(c2)CN(C2CCC(=O)NC2=O)C3=O)cc2c1CCCC2 (centres unmarked) [Example 150, 3-(5-(1-amino-5,6,7,8-tetrahydroisoquinolin-3-yl)-1-oxoisoindolin-2-yl)piperidine-2,6-dione] | ≥ 10000 | 32
4 | COc1cc(C#N)c(N)nc1-c1ccc2c(c1)CN(C1CCC(=O)NC1=O)C2=O (centres unmarked) [Example 181, 2-amino-6-(2-(2,6-dioxopiperidin-3-yl)-1-oxoisoindolin-5-yl)-5-methoxynicotinonitrile] | ≥ 10000 | 140
5 | COc1ccc2c(-c3ccc4c(c3)CN(C3CCC(=O)NC3=O)C4=O)nc(OC)cc2c1 (centres unmarked) [Example 58, 3-[5-(3,6-dimethoxyisoquinolin-1-yl)-1-oxo-2,3-dihydro-1H-isoindol-2-yl]piperidine-2,6-dione] | 9 | 1
6 | Cc1nc(-c2ccc3c(c2)CN(C2CCC(=O)NC2=O)C3=O)cc2ccccc12 (centres unmarked) [Example 88, 3-(5-(1-methylisoquinolin-3-yl)-1-oxoisoindolin-2-yl)piperidine-2,6-dione] | ≥ 20000 | 20
7 | CCn1ncc2c(-c3ccc4c(c3)CN(C3CCC(=O)NC3=O)C4=O)nc(N)nc21 (centres unmarked) [Example 45, 3-(5-{6-amino-1-ethyl-1H-pyrazolo[3,4-d]pyrimidin-4-yl}-1-oxo-2,3-dihydro-1H-isoindol-2-yl)piperidine-2,6-dione] | > 20000 | 430
8 | Cc1cc(-c2ccc3c(c2)CN(C2CCC(=O)NC2=O)C3=O)nc(C)c1N (centres unmarked) [Example 119, 3-(5-(5-amino-4,6-dimethylpyridin-2-yl)-1-oxoisoindolin-2-yl)piperidine-2,6-dione] | ≥ 10000 | 240
9 | N#Cc1cc(C2CC2)c(-c2ccc3c(c2)CN(C2CCC(=O)NC2=O)C3=O)nc1N (centres unmarked) [Example 183, 2-amino-5-cyclopropyl-6-(2-(2,6-dioxopiperidin-3-yl)-1-oxoisoindolin-5-yl) nicotinonitrile] | ≥ 10000 | 50
10 | O=C1CCC(N2Cc3cc(-c4cc(CO)ccn4)ccc3C2=O)C(=O)N1 (centres unmarked) [Example 108, 3-(5-(4-(hydroxymethyl)pyridin-2-yl)-1-oxoisoindolin-2-yl)piperidine-2,6-dione] | ≥ 10000 | 830
11 | CC(=O)O[C@@H]1CCOc2nc(-c3ccc4c(c3)CN([C@H]3CCC(=O)NC3=O)C4=O)ccc21 [Example 128, (4R)-7-{2-[(3S)-2,6-dioxopiperidin-3-yl]-1-oxo-2,3-dihydro-1H-isoindol-5-yl}-2H,3H,4H-pyrano[2,3-b]pyridin-4-yl acetate] | ≥ 20000 | 2830
12 | NC(=O)c1cnc(-c2ccc3c(c2)CN(C2CCC(=O)NC2=O)C3=O)nc1N (centres unmarked) [Example 81, 4-amino-2-[2-(2,6-dioxopiperidin-3-yl)-1-oxo-2,3-dihydro-1H-isoindol-5-yl]pyrimidine-5-carboxamide] | > 20000 | 3900
13 | COc1cc2nc(-c3ccc4c(c3)CN(C3CCC(=O)NC3=O)C4=O)nc(N)c2cc1OC (centres unmarked) [Example 16, 3-[5-(4-amino-6,7-dimethoxyquinazolin-2-yl)-1-oxo-2,3-dihydro-1H-isoindol-2-yl]piperidine-2,6-dione] | > 20000 | 30
14 | O=C1CCC(N2Cc3cc(-c4cnc5ccccc5n4)ccc3C2=O)C(=O)N1 (centres unmarked) [Example 7, 3-[1-oxo-5-(quinoxalin-2-yl)-2,3-dihydro-1H-isoindol-2-yl]piperidine-2,6-dione] | > 20000 | 73
15 | Cc1cc(C#N)c(-c2ccc3c(c2)CN(C2CCC(=O)NC2=O)C3=O)nc1N (centres unmarked) [Example 180, 6-amino-2-(2-(2,6-dioxopiperidin-3-yl)-1-oxoisoindolin-5-yl)-5-methylnicotinonitrile] | ≥ 10000 | 20
16 | N#Cc1ccnc(-c2ccc3c(c2)CN(C2CCC(=O)NC2=O)C3=O)c1 (centres unmarked) [Example 110, 2-(2-(2,6-dioxopiperidin-3-yl)-1-oxoisoindolin-5-yl) isonicotinonitrile] | ≥ 10000 | 880

Next, values leading:

Row | DC50 (Ikaros) [nM] | DC50 (Helios) [nM] | Compound
17 | > 20000 | 320 | N#Cc1cnc(-c2ccc3c(c2)CN(C2CCC(=O)NC2=O)C3=O)nc1N (centres unmarked) [Example 80, 4-Amino-2-[2-(2,6-dioxopiperidin-3-yl)-1-oxo-2,3-dihydro-1H-isoindol-5-yl]pyrimidine-5-carbonitrile]
18 | > 20000 | 36 | O=C1CCC(N2Cc3cc(-c4ncnc5c4oc4ccccc45)ccc3C2=O)C(=O)N1 (centres unmarked) [Example 3, 3-(5-{8-oxa-3,5-diazatricyclo[7.4.0.0^2,7]trideca-1(9),2,4,6,10,12-hexaen-6-yl}-1-oxo-2,3-dihydro-1H-isoindol-2-yl)piperidine-2,6-dione]
19 | 320 | 50 | O=C1CCC(N2Cc3cc(-c4cc5[nH]ccc5cn4)ccc3C2=O)C(=O)N1 (centres unmarked) [Example 159, 3-(1-oxo-5-(1H-pyrrolo[3,2-c]pyridin-6-yl)isoindolin-2-yl)piperidine-2,6-dione]
20 | > 20000 | > 20000 | N#Cc1ccc(-c2ccc3c(c2)CN(C2CCC(=O)NC2=O)C3=O)nn1 (centres unmarked) [Example 77, 6-[2-(2,6-Dioxopiperidin-3-yl)-1-oxo-2,3-dihydro-1H-isoindol-5-yl]pyridazine-3-carbonitrile]
21 | 1820 | 10 | CCOc1c(-c2ccc3c(c2)CN(C2CCC(=O)NC2=O)C3=O)ncc2ccccc12 (centres unmarked) [Example 85, 3-(5-(4-ethoxyisoquinolin-3-yl)-1-oxoisoindolin-2-yl)piperidine-2,6-dione]
22 | ≥ 20000 | 80 | Nc1cc2ccccc2c(-c2ccc3c(c2)CN([C@H]2CCC(=O)NC2=O)C3=O)n1 [Example 123, (S)-3-(5-(3-aminoisoquinolin-1-yl)-1-oxoisoindolin-2-yl)piperidine-2,6-dione]
23 | ≥ 10000 | 70 | Nc1cc(C(F)(F)F)cc(-c2ccc3c(c2)CN(C2CCC(=O)NC2=O)C3=O)n1 (centres unmarked) [Example 120, 3-(5-(6-amino-4-(trifluoromethyl)pyridin-2-yl)-1-oxoisoindolin-2-yl)piperidine-2,6-dione]
24 | 5000 | 40 | COc1cccc2c(-c3ccc4c(c3)CN(C3CCC(=O)NC3=O)C4=O)nc(N)cc12 (centres unmarked) [Example 54, 3-[5-(3-Amino-5-methoxyisoquinolin-1-yl)-1-oxo-2,3-dihydro-1H-isoindol-2-yl]piperidine-2,6-dione]
25 | ≥ 20000 | 83 | Cc1cc(C)nc(-c2ccc3c(c2)CN(C2CCC(=O)NC2=O)C3=O)c1 (centres unmarked) [Example 144, 3-(5-(4,6-dimethylpyridin-2-yl)-1-oxoisoindolin-2-yl)piperidine-2,6-dione]
26 | > 20000 | > 20000 | COC(=O)c1ccc2cnc(-c3ccc4c(c3)CN(C3CCC(=O)NC3=O)C4=O)nc2c1 (centres unmarked) [Example 41, methyl 2-[2-(2,6-dioxopiperidin-3-yl)-1-oxo-2,3-dihydro-1H-isoindol-5-yl]quinazoline-7-carboxylate]
27 | ≥ 20000 | 30 | Nc1cc(Cl)cc(-c2ccc3c(c2)CN(C2CCC(=O)NC2=O)C3=O)n1 (centres unmarked) [Example 165, 3-(5-(6-amino-4-chloropyridin-2-yl)-1-oxoisoindolin-2-yl)piperidine-2,6-dione]
28 | ≥ 20000 | 20 | Cc1cc(N)nc(-c2ccc3c(c2)CN(C2CCC(=O)NC2=O)C3=O)c1 (centres unmarked) [Example 140, 3-(5-(6-amino-4-methylpyridin-2-yl)-1-oxoisoindolin-2-yl)piperidine-2,6-dione]
29 | ≥ 10000 | 10 | O=C1CCC(N2Cc3cc(-c4ccc5c(n4)NCCC5)ccc3C2=O)C(=O)N1 (centres unmarked) [Example 137, 3-[1-oxo-5-(5,6,7,8-tetrahydro-1,8-naphthyridin-2-yl)-2,3-dihydro-1H-isoindol-2-yl]piperidine-2,6-dione]
30 | > 20000 | > 20000 | CCN(CC)c1nc(-c2ccc3c(c2)CN(C2CCC(=O)NC2=O)C3=O)nc2ccc(Cl)cc12 (centres unmarked) [Example 15, 3-{5-[6-chloro-4-(diethylamino)quinazolin-2-yl]-1-oxo-2,3-dihydro-1H-isoindol-2-yl}piperidine-2,6-dione]
31 | > 20000 | > 20000 | Nc1nc(-c2ccc3c(c2)CN(C2CCC(=O)NC2=O)C3=O)c2nc[nH]c2n1 (centres unmarked) [Example 43, 3-[5-(2-amino-9H-purin-6-yl)-1-oxo-2,3-dihydro-1H-isoindol-2-yl]piperidine-2,6-dione]
32 | ≥ 10000 | 290 | O=C1CCC(N2Cc3cc(-c4ccc5c(n4)NCCCC5)ccc3C2=O)C(=O)N1 (centres unmarked) [Example 136, 3-(1-oxo-5-{5H,6H,7H,8H,9H-pyrido[2,3-b]azepin-2-yl}-2,3-dihydro-1H-isoindol-2-yl) piperidine-2,6-dione]
33 | ≥ 20000 | 610 | Cc1cc(-c2ccc3c(c2)CN(C2CCC(=O)NC2=O)C3=O)nc(N)n1 (centres unmarked) [Example 143, 3-(5-(2-amino-6-methylpyrimidin-4-yl)-1-oxoisoindolin-2-yl)piperidine-2,6-dione]
34 | ≥ 20000 | 450 | CN(C)C(=O)c1c(-c2ccc3c(c2)CN(C2CCC(=O)NC2=O)C3=O)nc(N)c2ccccc12 (centres unmarked) [Example 130, 1-amino-3-[2-(2,6-dioxopiperidin-3-yl)-1-oxo-2,3-dihydro-1H-isoindol-5-yl]-N,N-dimethylisoquinoline-4-carboxamide]
